One data set addresses T1, Coagulation factor XII (Homo sapiens, UniProt P00748).
T1 sequence (P00748 whole entry): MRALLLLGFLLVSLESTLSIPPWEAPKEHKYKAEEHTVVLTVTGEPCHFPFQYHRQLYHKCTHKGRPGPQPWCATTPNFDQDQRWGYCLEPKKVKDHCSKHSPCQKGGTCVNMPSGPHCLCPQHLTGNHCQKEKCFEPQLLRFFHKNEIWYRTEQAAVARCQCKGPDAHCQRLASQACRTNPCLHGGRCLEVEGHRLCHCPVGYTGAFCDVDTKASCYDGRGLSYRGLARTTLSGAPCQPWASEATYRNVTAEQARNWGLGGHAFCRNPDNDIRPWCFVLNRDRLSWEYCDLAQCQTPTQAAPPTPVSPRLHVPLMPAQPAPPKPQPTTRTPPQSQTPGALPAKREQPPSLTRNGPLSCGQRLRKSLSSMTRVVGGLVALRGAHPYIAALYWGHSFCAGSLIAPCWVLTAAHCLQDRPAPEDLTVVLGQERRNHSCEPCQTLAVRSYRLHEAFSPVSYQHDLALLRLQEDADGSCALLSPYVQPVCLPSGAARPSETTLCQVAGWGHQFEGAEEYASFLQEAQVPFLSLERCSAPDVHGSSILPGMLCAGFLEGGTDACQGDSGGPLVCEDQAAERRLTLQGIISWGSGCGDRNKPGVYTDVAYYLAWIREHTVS
The data set can be described thus: Inhibition of human beta factor 12a using fluorogenic substrate Boc-Gln-Gly-Arg-AMC preincubated for 10 mins followed by addition of substrate measured every min for 30 mins.

The nature of data set [1]: Half life in human citrated plasma at 10 uM by mass spectrophotometric analysis. It is filed as ADME, cell-free.

*1 amine or outer side, *2 acyl side, *3 side chain or, on linkers, in order; H or OH if unused. Where a SMILES comes first, the peptide text is derived from it. Bridges are numbered along the chain shown (N, C = ends). [ ]: non-standard residue; d: D form. TATA = O=C(CC[*:1])N1CN(C(=O)CC[*:2])CN(C(=O)CC[*:3])C1; Phe(4-guanidino) = N=C(N)Nc1ccc(C[C@H](N)C(=O)O)cc1; Nva = CCC[C@H](N)C(=O)O

Turning to `CC(C)C[C@@H]1NC(=O)[C@H](CCC(N)=O)NC(=O)[C@H](CCCNC(=N)N)NC(=O)[C@@H]2CSCCC(=O)N3CN(CN(C3)C(=O)CCSC[C@@H](C(=O)N[C@@H](CCCNC(=N)N)C(=O)O)NC(=O)[C@H](CCCNC(=N)N)NC1=O)C(=O)CCSC[C@H](NC(=O)[C@H](N)CCCCNC(=N)N)C(=O)N[C@@H](Cc1ccccc1)C(=O)N[C@@H](CCCNC(=N)N)C(=O)N[C@@H](CC(C)C)C(=O)N1CCC[C@H]1C(=O)N2`, the Ki (as a rule, the dissociation constant of the complex between target and ligand, obtained from inhibition or displacement) on Coagulation factor XII was determined as 8.8 nM. Further, the half-life (as a rule, how long it takes for the measured level to halve) at 10 µM in data set [1] was 5 h. Consider `CC(C)C[C@@H]1NC(=O)[C@H](CCC(N)=O)NC(=O)[C@H](CCCNC(=N)N)NC(=O)[C@@H]2CSCCC(=O)N3CN(CN(C3)C(=O)CCSC[C@@H](C(=O)N[C@@H](CCCNC(=N)N)C(=O)O)NC(=O)[C@H](CCCNC(=N)N)NC1=O)C(=O)CCSC[C@H](NC(=O)[C@H](N)CCCCCN)C(=O)N[C@@H](Cc1ccccc1)C(=O)N[C@@H](CCCNC(=N)N)C(=O)N[C@@H](CC(C)C)C(=O)N1CCC[C@H]1C(=O)N2`, for which affinity on Coagulation factor XII was put at a Ki of 6.5 nM. The compound also showed a half-life at 10 µM in data set [1] of 2 h. Regarding `CC(C)C[C@@H]1NC(=O)[C@H](CCC(N)=O)NC(=O)[C@H](CCCNC(=N)N)NC(=O)[C@@H]2CSCCC(=O)N3CN(CN(C3)C(=O)CCSC[C@H](NC(=O)[C@@H](N)CCCNC(=N)N)C(=O)N[C@@H](Cc3cccnc3)C(=O)N[C@@H](CCCNC(=N)N)C(=O)N[C@@H](CC(C)C)C(=O)N3CCC[C@H]3C(=O)N2)C(=O)CCSC[C@@H](C(=O)N[C@@H](CCCNC(=N)N)C(=O)N[C@@H](Cc2c[nH]c3ccccc23)C(=O)O)NC(=O)[C@H](CCCNC(=N)N)NC1=O`, the Ki on Coagulation factor XII is 3 nM. This counts as single-digit nanomolar. The compound `CSCC[C@@H]1NC(=O)[C@H](CCCNC(=N)N)NC(=O)[C@H](Cc2ccccc2)NC(=O)[C@@H](NC(=O)[C@@H](N)CCCNC(=N)N)CSCCC(=O)N2CN3CN(C2)C(=O)CCSC[C@H](NC(=O)[C@@H]2CCCN2C1=O)C(=O)N[C@@H](CCCNC(=N)N)C(=O)N[C@@H](CCC(N)=O)C(=O)N[C@@H](CC(C)C)C(=O)N[C@@H](CCCNC(=N)N)C(=O)N[C@H](C(=O)N[C@@H](CCCNC(=N)N)C(=O)N[C@@H](Cc1c[nH]c2ccccc12)C(=O)O)CSCCC3=O` (H-RCFRMPCRQLRCRW-OH; linker 2-7-12 via TATA) showed a Ki on Coagulation factor XII greater than 3000 nM. As to `Cc1ccccc1C[C@@H]1NC(=O)[C@@H](NC(=O)[C@@H](N)CCCNC(=N)N)CSCCC(=O)N2CN3CN(C2)C(=O)CCSC[C@H](NC(=O)[C@@H]2CCCN2C(=O)[C@H](CC(C)C)NC(=O)[C@H](CCCNC(=N)N)NC1=O)C(=O)N[C@@H](CCCNC(=N)N)C(=O)N[C@@H](CCC(N)=O)C(=O)N[C@@H](CC(C)C)C(=O)N[C@@H](CCCNC(=N)N)C(=O)N[C@H](C(=O)N[C@@H](CCCNC(=N)N)C(=O)N[C@@H](Cc1c[nH]c2ccccc12)C(=O)O)CSCCC3=O`, the affinity on Coagulation factor XII, expressed as Ki, was 40 nM. Same read-out and setting: as for `CC(C)C[C@@H]1NC(=O)[C@H](CCC(N)=O)NC(=O)[C@H](CCCNC(=N)N)NC(=O)[C@@H]2CSCCC(=O)N3CN(CN(C3)C(=O)CCSC[C@H](NC(=O)[C@@H](N)CCCNC(=N)N)C(=O)N[C@@H](C)C(=O)N[C@@H](CCCNC(=N)N)C(=O)N[C@@H](CC(C)C)C(=O)N3CCC[C@H]3C(=O)N2)C(=O)CCSC[C@@H](C(=O)N[C@@H](CCCNC(=N)N)C(=O)N[C@@H](Cc2c[nH]c3ccccc23)C(=O)O)NC(=O)[C@H](CCCNC(=N)N)NC1=O` (H-RCARLPCRQLRCRW-OH; linker 2-7-12 via TATA), the figure is 132 nM. At Coagulation factor XII, `CC(C)C[C@@H]1NC(=O)[C@H](CCC(N)=O)NC(=O)[C@H](CCCNC(=N)N)NC(=O)[C@@H]2CSCCC(=O)N3CN(CN(C3)C(=O)CCSC[C@H](NC(=O)[C@@H](N)CCCNC(=N)N)C(=O)N[C@@H](Cc3ccccc3)C(=O)N[C@@H](CCCNC(=N)N)C(=O)N[C@@H](CC(C)C)C(=O)N[C@@H](CO)C(=O)N2)C(=O)CCSC[C@@H](C(=O)N[C@@H](CCCNC(=N)N)C(=O)N[C@@H](Cc2c[nH]c3ccccc23)C(=O)O)NC(=O)[C@H](CCCNC(=N)N)NC1=O` (H-RCFRLSCRQLRCRW-OH; linker 2-7-12 via TATA) showed a Ki of 29.4 nM. Consider `CC[C@H](C)[C@@H]1NC(=O)[C@H](CCCNC(=N)N)NC(=O)[C@H](Cc2ccccc2)NC(=O)[C@@H](NC(=O)[C@@H](N)CCCNC(=N)N)CSCCC(=O)N2CN3CN(C2)C(=O)CCSC[C@H](NC(=O)[C@@H]2CCCN2C1=O)C(=O)N[C@@H](CCCNC(=N)N)C(=O)N[C@@H](CCC(N)=O)C(=O)N[C@@H](CC(C)C)C(=O)N[C@@H](CCCNC(=N)N)C(=O)N[C@H](C(=O)N[C@@H](CCCNC(=N)N)C(=O)N[C@@H](Cc1c[nH]c2ccccc12)C(=O)O)CSCCC3=O` (H-RCFRIPCRQLRCRW-OH; linker 2-7-12 via TATA), for which the Ki at Coagulation factor XII is 890 nM.

Turning to `CC(C)C[C@@H]1NC(=O)[C@H](CCC(N)=O)NC(=O)[C@H](CCCNC(=N)N)NC(=O)[C@@H]2CSCCC(=O)N3CN(CN(C3)C(=O)CCSC[C@H](NC(=O)[C@@H](N)CCCNC(=N)N)C(=O)N[C@@H](Cc3ccc4ccccc4c3)C(=O)N[C@@H](CCCNC(=N)N)C(=O)N[C@@H](CC(C)C)C(=O)N3CCC[C@H]3C(=O)N2)C(=O)CCSC[C@@H](C(=O)N[C@@H](CCCNC(=N)N)C(=O)N[C@@H](Cc2c[nH]c3ccccc23)C(=O)O)NC(=O)[C@H](CCCNC(=N)N)NC1=O`, the affinity at Coagulation factor XII corresponds to a Ki of 6 nM. This Ki is about 150-fold lower than that of the compound before.

Consider `CC(C)C[C@@H]1NC(=O)[C@H](CCC(N)=O)NC(=O)[C@H](CCCNC(=N)N)NC(=O)[C@@H]2CSCCC(=O)N3CN(CN(C3)C(=O)CCSC[C@H](NC(=O)[C@@H](N)CCCNC(=N)N)C(=O)N[C@@H](Cc3ccccc3)C(=O)N[C@@H](Cc3ccc(NC(=N)N)cc3)C(=O)N[C@@H](CC(C)C)C(=O)N3CCC[C@H]3C(=O)N2)C(=O)CCSC[C@@H](C(=O)N[C@@H](CCCNC(=N)N)C(=O)N[C@@H](Cc2c[nH]c3ccccc23)C(=O)O)NC(=O)[C@H](CCCNC(=N)N)NC1=O` (H-RCF[Phe(4-guanidino)]LPCRQLRCRW-OH; linker 2-7-12 via TATA), for which the Ki at Coagulation factor XII came out at 380 nM. In the case of `CC(C)C[C@@H]1NC(=O)[C@H](CCC(N)=O)NC(=O)[C@H](CCCNC(=N)N)NC(=O)[C@@H]2CSCCC(=O)N3CN(CN(C3)C(=O)CCSC[C@H](NC(=O)[C@@H](N)CCCNC(=N)N)C(=O)N[C@@H](Cc3ccccc3)C(=O)N[C@@H](CCCNC(=N)N)C(=O)N[C@@H](CC(C)C)C(=O)N3CCC[C@H]3C(=O)N2)C(=O)CCSC[C@@H](C(=O)O)NC(=O)[C@H](CCCNC(=N)N)NC1=O` (H-RCFRLPCRQLRC-OH; linker 2-7-12 via TATA), affinity on Coagulation factor XII was put at a Ki of 9.3 nM. For the compound `CCC[C@@H]1NC(=O)[C@H](CCCNC(=N)N)NC(=O)[C@H](Cc2ccccc2)NC(=O)[C@@H](NC(=O)[C@@H](N)CCCNC(=N)N)CSCCC(=O)N2CN3CN(C2)C(=O)CCSC[C@H](NC(=O)[C@@H]2CCCN2C1=O)C(=O)N[C@@H](CCCNC(=N)N)C(=O)N[C@@H](CCC(N)=O)C(=O)N[C@@H](CC(C)C)C(=O)N[C@@H](CCCNC(=N)N)C(=O)N[C@H](C(=O)N[C@@H](CCCNC(=N)N)C(=O)N[C@@H](Cc1c[nH]c2ccccc12)C(=O)O)CSCCC3=O` (H-RCFR[Nva]PCRQLRCRW-OH; linker 2-7-12 via TATA), at Coagulation factor XII, the affinity corresponds to a Ki of 220 nM. Compound `CC[C@H](C)[C@@H]1NC(=O)[C@H](CCC(N)=O)NC(=O)[C@H](CCCNC(=N)N)NC(=O)[C@@H]2CSCCC(=O)N3CN(CN(C3)C(=O)CCSC[C@H](NC(=O)[C@@H](N)CCCNC(=N)N)C(=O)N[C@@H](Cc3ccccc3)C(=O)N[C@@H](CCCNC(=N)N)C(=O)N[C@@H](CC(C)C)C(=O)N3CCC[C@H]3C(=O)N2)C(=O)CCSC[C@@H](C(=O)N[C@@H](CCCNC(=N)N)C(=O)N[C@@H](Cc2c[nH]c3ccccc23)C(=O)O)NC(=O)[C@H](CCCNC(=N)N)NC1=O` (H-RCFRLPCRQIRCRW-OH; linker 2-7-12 via TATA) displayed a Ki at Coagulation factor XII of 78 nM. Compared with the last compound, the Ki is about 2.8-fold lower. `CC(C)C[C@@H]1NC(=O)[C@H](CCC(N)=O)NC(=O)[C@H](CCCNC(=N)N)NC(=O)[C@@H]2CSCCC(=O)N3CN(CN(C3)C(=O)CCSC[C@H](NC(=O)[C@@H](N)CCCNC(=N)N)C(=O)N[C@@H](Cc3cccc(F)c3)C(=O)N[C@@H](CCCNC(=N)N)C(=O)N[C@@H](CC(C)C)C(=O)N3CCC[C@H]3C(=O)N2)C(=O)CCSC[C@@H](C(=O)N[C@@H](CCCNC(=N)N)C(=O)N[C@@H](Cc2c[nH]c3ccccc23)C(=O)O)NC(=O)[C@H](CCCNC(=N)N)NC1=O`: the affinity on Coagulation factor XII, expressed as Ki, was 4.5 nM. In the case of `CC(C)C[C@@H]1NC(=O)[C@H](CCC(N)=O)NC(=O)[C@H](CCCNC(=N)N)NC(=O)[C@@H]2CSCCC(=O)N3CN(CN(C3)C(=O)CCSC[C@H](NC(=O)[C@@H](N)CCCNC(=N)N)C(=O)N[C@@H](Cc3ccc(C(C)(C)C)cc3)C(=O)N[C@@H](CCCNC(=N)N)C(=O)N[C@@H](CC(C)C)C(=O)N3CCC[C@H]3C(=O)N2)C(=O)CCSC[C@@H](C(=O)N[C@@H](CCCNC(=N)N)C(=O)N[C@@H](Cc2c[nH]c3ccccc23)C(=O)O)NC(=O)[C@H](CCCNC(=N)N)NC1=O`, the Ki at Coagulation factor XII is greater than 1000 nM. The same measure, in the same setting: as for `CC(C)C[C@@H]1NC(=O)[C@H](CCC(N)=O)NC(=O)[C@H](CCCNC(=N)N)NC(=O)[C@@H]2CSCCC(=O)N3CN(CN(C3)C(=O)CCSC[C@H](NC(=O)[C@@H](N)CCCNC(=N)N)C(=O)N[C@@H](CCC3CCCCC3)C(=O)N[C@@H](CCCNC(=N)N)C(=O)N[C@@H](CC(C)C)C(=O)N3CCC[C@H]3C(=O)N2)C(=O)CCSC[C@@H](C(=O)N[C@@H](CCCNC(=N)N)C(=O)N[C@@H](Cc2c[nH]c3ccccc23)C(=O)O)NC(=O)[C@H](CCCNC(=N)N)NC1=O`, the figure is 290 nM.

For the origin of these results see ChEMBL document CHEMBL3992518, “Peptide Macrocycle Inhibitor of Coagulation Factor XII with Subnanomolar Affinity and High Target Selectivity” (J Med Chem, 2017).
